Publication PMC7900708 (Biochemistry and Biophysics Reports, 2021)

Tests used:
[1] = target: T1, MtuUng (Mycobacterium tuberculosis uracil DNA glycosylase) (Mycobacterium tuberculosis, UniProt P9WFQ9); assay: Molecular beacon fluorescence assay of MtuUng activity and inhibition; type: biochemical
T1 sequence (P9WFQ9 1-227): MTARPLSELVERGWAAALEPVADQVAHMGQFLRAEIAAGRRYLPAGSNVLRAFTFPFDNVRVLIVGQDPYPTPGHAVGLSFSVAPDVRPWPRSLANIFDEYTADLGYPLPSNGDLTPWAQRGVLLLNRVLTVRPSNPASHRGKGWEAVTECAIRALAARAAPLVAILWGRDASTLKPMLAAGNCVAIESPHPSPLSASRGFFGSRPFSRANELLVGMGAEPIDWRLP

uracil DNA glycosylase = conditions: cited from earlier work

Row | Compound | IC50 [1] [mM] | also measured
1 | O=c1[nH]ccc(=S)[nH]1 [4-Thio-Uracil] | 3.57 ± 0.35 | 
2 | Nc1c[nH]c(=O)[nH]c1=O [5-Amino-Uracil] | 7.18 ± 0.97 | 
3 | O=c1[nH]cc(Br)c(=O)[nH]1 [5-Bromo-Uracil] | 13.6 ± 0.73 | 
4 | O=c1[nH]cc(Cl)c(=O)[nH]1 [5-Chloro-Uracil] | 8.71 ± 0.7 | Ki [1]: 7.04 mM; type of inhibition (Lineweaver-Burk plot) ([1]; different inhibitor concentrations, 0.3 nM MtuUng): linear mixed inhibition
5 | O=c1[nH]cc(F)c(=O)[nH]1 [5-Fluoro-Uracil] | 50.2 ± 3.85 | 
6 | O=c1[nH]cc(I)c(=O)[nH]1 [5-Iodo-Uracil] | 4.92 ± 0.51 | 
7 | O=[N+]([O-])c1cnc(O)nc1O [5-Nitro-Uracil] | 10.8 ± 0.32 | 
8 | O=C1CC(=O)NC(=O)N1 [Barbituric acid] | 7.29 ± 0.32 | 
9 | O=c1cc[nH]c(=O)[nH]1 [Uracil] | 2.05 ± 0.3 | mode of inhibition (uracil DNA glycosylase): non-competitive
